Where two headings read alike, the source gives them in different places.
Experiments:
LSD1 [1] = target: T1, LSD1 (Homo sapiens, UniProt O60341); details: in vitro assays; cited from earlier work
T1 construct: Reaction Biology Corporation (performed the assay)

MAO-A [2] = test system: T2, MAO-A; assay: MAO-A activity assay in corticosteroid-stimulated BJ cells; type: cell-based, human; details: then 50 μM compound 24 h
T2 construct: endogenous in cells; host or cells: BJ human foreskin fibroblasts stimulated with DEX or HC
Description: (§1) The BJ cells were subsequently incubated with 10 μM HC or 100 μM DEX to stimulate MAO expression. […] The untreated BJ cells received normal growth medium. The cells were collected, homogenised, and analysed through Western blotting where the expression of MAO-A/B was determined through immunodetection of protein subtypes.
(§2) Activity assays were commercially sourced from BioVision (Abcam, BioVision ab241031, Waltham, MA, USA) and were performed according to manufacturer’s instructions. The treatment groups were plated in duplicate on a black, flat 96-well microplate. The cells were homogenised in assay buffer using a microtube mixer at 4 °C and centrifuged at 10,000× g for 10 min. A Bradford assay was performed to determine the total protein concentration within each cell pellet (200 μg/well for BJ cells, 40 μg/well for hESC-derived neurons). Approximately 40 μL of supernatant was loaded into wells along with 10 μL of either […], or assay buffer for total MAO activity. A H2O2 standard was pipetted as supplied and 50 μL of reaction mix was pipetted into all wells. Using a CLARIOstar Plus Microplate Reader, (BMG Labtech, Ortenberg, Germany), fluorescence was measured kinetically at 25 °C for 60 min with Ex/Em = 535/587 nm.

MAO-B [3] = test system: T3, MAO-B; assay: MAO-B activity assay in corticosteroid-stimulated BJ cells; type: cell-based, human; details: then 50 μM compound 24 h
T3 construct: endogenous in cells; host or cells: BJ human foreskin fibroblasts stimulated with DEX or HC
Description: as §1, §2

human skin fibroblasts = test system: human skin fibroblasts; set-up: method as in PMID 37432217; details: in comparison to untreated controls, at certain doses; cited from earlier work
LSD1 [4] = target: T1, LSD1; assay: LSD1 fluorescence coupling enzyme assay (Reaction Biology Corporation); type: biochemical; details: Reaction Biology Corp., 30 min pre-incubation, 10 μM histone H3(1-21)K4me2 peptide substrate; read-out: IC50, LSD1 demethylase activity
Description: The inhibitory activity of HCl 489479, OLC, and OLP was measured using a fluorescence coupling enzyme assay (performed by Reaction Biology Corporation). […] All compounds were pre-incubated for 30 min with the enzyme before the addition of 10 μM histone H3(1-21)K4me2 peptide substrate to start the reaction. Fluorescence was measured using an EnVision Multimode Plate Reader at Ex/Em = 535/590.

MAO-A [5] = test system: T2, MAO-A; assay: MAO-A activity assay in hESC-derived neurons stimulated with ATRA; type: cell-based, human; details: 1 μM ATRA 24 h, then TCP 5 μM, OLC 50 μM or OLP 50 μM for 24 h
Description: (§3) An in vitro model of MDD was designed for stem cell-derived neuronal cells through incubation of 1 μM all-trans retinoic acid (Sigma-Aldrich PHR1187, St. Louis, MO, USA). All cell treatments were conducted in duplicate and replicated using independently differentiating neuronal plates.
as §2

purified MAO-A = target: T4, purified MAO-A (Homo sapiens, UniProt P21397); assay: MAO-A direct screening assay (inhibitor screening kit); type: biochemical; details: purified enzyme; read-out: IC50, inhibition of MAO-A
T4 construct: purchased Sigma-Aldrich MAK295
T4 sequence (P21397 1-527): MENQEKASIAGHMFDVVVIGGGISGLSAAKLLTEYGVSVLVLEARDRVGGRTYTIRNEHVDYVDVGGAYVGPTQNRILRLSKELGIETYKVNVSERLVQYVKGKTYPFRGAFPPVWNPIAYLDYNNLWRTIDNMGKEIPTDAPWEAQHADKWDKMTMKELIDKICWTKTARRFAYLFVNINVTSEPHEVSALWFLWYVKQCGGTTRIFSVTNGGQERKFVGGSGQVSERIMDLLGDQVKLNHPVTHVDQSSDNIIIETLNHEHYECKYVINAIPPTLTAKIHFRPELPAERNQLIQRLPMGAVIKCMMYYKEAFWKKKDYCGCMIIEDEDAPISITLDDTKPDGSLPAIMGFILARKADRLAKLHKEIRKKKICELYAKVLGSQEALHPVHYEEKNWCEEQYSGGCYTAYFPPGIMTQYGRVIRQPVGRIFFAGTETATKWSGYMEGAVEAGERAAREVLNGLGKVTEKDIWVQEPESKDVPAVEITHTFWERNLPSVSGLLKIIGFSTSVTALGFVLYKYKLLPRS
Description: The assays were conducted for MAO-A and MAO-B according to the manufacturer’s instructions.

MAO-B [6] = test system: T3, MAO-B; assay: MAO-B activity assay in hESC-derived neurons stimulated with ATRA; type: cell-based, human; details: 1 μM ATRA 24 h, then TCP 5 μM, OLC 50 μM or OLP 50 μM for 24 h
Description: as §3, §2

BJ cells = assay: Viability of BJ cells (CellTiter-Blue Cell Viability Assay); type: cell-based, human; details: for IC50: Homo sapiens, BJ
Description: The BJ cells were seeded at densities of 10,000 cells in black flat bottom 96-well plates (Nalge Nunc, Penfield, Rochester, NY, USA) and treated with a dose–response of OLC (0–500 μM) and OLP (0–500 μM) for 24 h, 48 h, 72 h, and 7 days at 37 °C, 5% (v/v) CO2. Cell viability was measured using the Cell-Titer Blue® Assay kit (Promega, Madison, WI, USA) according to the manufacturer’s instructions. Cell-Titer Blue reagent was added to each well and incubated for 4 h at 37 °C with 5% (v/v) CO2 before the fluorescence intensity was read using the CLARIOstar Microplate Reader (BMG Labtech, Ortenberg, Germany).
A Nikon Eclipse Ts2 light microscope (Nikon Ti TS2-S-SM, Tokyo, Japan) was used to image untreated and treated BJ cells (OLP or OLC: 0–100 μM) at 4× objective magnification at 20, 44, and 120 h (Figures S1 and S2).

MAO-A/B expression = assay: MAO-A/B protein expression in HC- or DEX-stimulated BJ cells (Western blotting); type: cell-based, human; details: 10 μM HC 5 days or 100 μM DEX 7 days, then 50 μM compound; Western blot
Description: as §1

total MAO [7] = assay: Total MAO activity assay in hESC-derived neurons stimulated with ATRA; type: cell-based, human; details: 1 μM ATRA 24 h, then TCP 5 μM, OLC 50 μM or OLP 50 μM for 24 h
Description: as §3, §2

total MAO [8] = assay: Total MAO activity assay in corticosteroid-stimulated BJ cells; type: cell-based, human; details: then 50 μM compound 24 h
Description: as §1, §2

For CC=C(C=O)C(CC=O)CC(=O)OCCc1ccc(O)c(O)c1 (stereo in doubt) [oleacein], the IC50 (LSD1 [1]) is given as about 2.5 µM.

For C/C=C(/C=O)[C@@H](CC=O)CC(=O)OCCc1ccc(O)cc1 [OLC, oleocanthal], the “MAO-A activity in BJ cells” value (MAO-A [2]; 10 μM HC 5 days) was “downregulate”, the “MAO-A activity in BJ cells” value (MAO-A [2]; 100 μM DEX 7 days) was “downregulate” and the “MAO-B activity in BJ cells” value (MAO-B [3]; 10 μM HC 5 days) was “downregulate”. For the same compound, the “MAO-B activity in BJ cells” value (MAO-B [3]; 100 μM DEX 7 days) was “downregulate”, the “growth capacity of human skin fibroblasts” value (human skin fibroblasts) was “significantly increased” and the IC50 (LSD1 [4]) was 12 µM. The “MAO-A activity in hESC-derived neurons” value (MAO-A [5]) was “significantly reduced”, the IC50 (purified MAO-A) was 1.9 µM and the “MAO-B activity in hESC-derived neurons” value (MAO-B [6]) was “significantly reduced”. The “relative viability of BJ cells at the highest concentration” value (BJ cells; 500 μM) was “reduction”, the “proliferation potential of BJ cells” value (BJ cells; 25, 50, 75 and 100 μM, similar to untreated cells) was “maintained their proliferation potential” and the IC50 (BJ cells; 24 h) was 123 µM. The IC50 (BJ cells; 48 h) was 111 µM, the “toxicity to BJ cells at the concentrations used in further experiments” value (BJ cells; concentrations used in further experiments (50 μM)) was “non-toxic” and the “viability of BJ cells at lower concentrations” value (BJ cells; up to 200 μM) was “largely maintained”. The “MAO enzyme expression within BJ cells” value (MAO-A/B expression) was “Potent inhibition”, the “total MAO activity in hESC-derived neurons” value (total MAO [7]) was “significantly reduced” and the “total MAO activity in BJ cells” value (total MAO [8]; 10 μM HC 5 days) was “downregulate”. For the same compound, the “total MAO activity in BJ cells” value (total MAO [8]; 100 μM DEX 7 days) was “downregulate”.

Reference: paper PMC11173677, “Identification and Evaluation of Olive Phenolics in the Context of Amine Oxidase Enzyme Inhibition and Depression: In Silico Modelling and In Vitro Validation” (Molecules, 2024)
